Laboratory results reported in patent US10508085B2, “Compounds and methods for IDO and TDO modulation, and indications therefor” (Plexxikon Inc., priority 2016, dated 2019).
Read-outs that look alike come from different tables or passages of the source.

Legend:
[1] = target: T1, Human Tryptophan 2,3-dioxygenase (TDO) (Homo sapiens, UniProt P48775); experiment: Human TDO enzymatic assay (kynurenine level); type: biochemical; details: 1 nM TDO, 350 μM L-Trp; geometric mean; read-out: TDO GMean: IC50 (μM) (Biochemical Assay)
T1 construct: His tag (N); made in house; host or cells: E. coli
T1 sequence (P48775 whole entry): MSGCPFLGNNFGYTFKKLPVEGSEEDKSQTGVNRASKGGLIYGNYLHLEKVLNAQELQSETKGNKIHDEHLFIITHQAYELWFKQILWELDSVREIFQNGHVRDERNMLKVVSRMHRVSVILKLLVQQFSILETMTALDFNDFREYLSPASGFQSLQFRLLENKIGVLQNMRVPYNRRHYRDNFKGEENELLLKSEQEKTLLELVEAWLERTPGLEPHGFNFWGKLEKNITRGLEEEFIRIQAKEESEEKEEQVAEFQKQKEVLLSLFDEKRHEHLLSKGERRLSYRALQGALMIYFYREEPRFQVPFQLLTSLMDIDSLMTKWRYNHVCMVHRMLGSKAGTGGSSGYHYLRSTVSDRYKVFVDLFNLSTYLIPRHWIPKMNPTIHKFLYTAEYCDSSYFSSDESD
In short: (§1)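 Compound is mixed with His-tagged enzyme from E. coli in pH 6.5 phosphate buffer containing ascorbate, methylene blue and catalase, at room temperature. IDO uses 6 nM enzyme and 10 μM Trp for 20 min. TDO uses 1 nM enzyme and 350 μM Trp for 70 min. TCA stops the reaction, and IC50 is derived from kynurenine levels.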

[2] = target: T2, human TDO (TDO-expressing HEK293 cells) (Homo sapiens, UniProt P48775); experiment: Cell based kynurenine assay, TDO-expressing HEK293 cell clones; details: TDO-expressing HEK293 cells, geometric mean, read-out: HEK293 TDO Kynurenine GMean IC50 (μM) (Cellular Assay)
T2 construct: expressed in transfected cells
T2 sequence (P48775 whole entry): as above
In short: (§2)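 Stably transfected HEK293 clones expressing human IDO1 or TDO (CMV promoter) were seeded at 2.5×10^4 cells/well and treated with serially diluted compounds for 24 h. Supernatant kynurenine was then measured, and % inhibition versus DMSO-treated cell and media-only controls was fitted by nonlinear regression to give IC50.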

[3] = target: T3, Human Indoleamine 2,3-dioxygenase (IDO) (Homo sapiens, UniProt P14902); experiment: Human IDO enzymatic assay (kynurenine level); type: biochemical; details: 6 nM IDO, 10 μM L-Trp; geometric mean; read-out: IDO1 GMean: IC50 (μM) (Biochemical Assay)
T3 construct: His tag (N); made in house; host or cells: E. coli
T3 sequence (P14902 whole entry): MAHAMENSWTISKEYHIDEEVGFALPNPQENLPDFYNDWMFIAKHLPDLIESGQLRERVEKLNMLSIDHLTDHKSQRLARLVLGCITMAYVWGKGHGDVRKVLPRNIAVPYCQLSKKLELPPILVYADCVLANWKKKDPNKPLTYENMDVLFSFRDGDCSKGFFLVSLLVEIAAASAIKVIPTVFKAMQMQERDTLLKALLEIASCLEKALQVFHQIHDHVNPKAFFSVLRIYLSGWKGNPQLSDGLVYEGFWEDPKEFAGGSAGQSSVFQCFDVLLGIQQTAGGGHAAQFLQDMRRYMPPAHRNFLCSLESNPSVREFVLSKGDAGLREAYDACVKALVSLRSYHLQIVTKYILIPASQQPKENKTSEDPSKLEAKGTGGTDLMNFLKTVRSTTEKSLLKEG
In short: as §1

[4] = target: T4, human IDO (IDO1-expressing HEK293 cells) (Homo sapiens, UniProt P14902); experiment: Cell based kynurenine assay, IDO1-expressing HEK293 cell clones; details: IDO1-expressing HEK293 cells, geometric mean, read-out: HEK293 IDO1 Kynurenine GMean IC50 (μM) (Cellular Assay)
T4 construct: expressed in transfected cells
T4 sequence (P14902 whole entry): as above
In short: as §2

| SMILES | IC50 [1] [µM] | IC50 ([2]; 24 hours incubation) [µM] | IC50 [3] [µM] | IC50 ([4]; 24 hours incubation) [µM] | IC50 ([2]; 24 hours) [µM] | IC50 ([4]; 24 hours) [µM] |
| --- | --- | --- | --- | --- | --- | --- |
| CC(C)(C1CCC1)C(O)c1cc(Cl)cc2cn[nH]c12 (centres unmarked) [Compound P-0118, 1-(5-chloro-1H-indazol-7-yl)-2-cyclobutyl-2-methylpropan-1-ol] | 0.0001 to 10 | 0.0001 to 10 | 0.0001 to 10 | 0.0001 to 10 |  |  |
| COCC(=O)N1CCC(C(C)(C)[C@H](O)c2cc(Cl)cc3cn[nH]c23)CC1 [Compound P-0533, (S)-1-(4-(1-(5-chloro-1H-indazol-7-yl)-1-hydroxy-2-methylpropan-2-yl)piperidin-1-yl)-2-methoxyethan-1-one] | 0.0001 to 10 |  | 0.0001 to 10 |  | 0.0001 to 10 | 0.0001 to 10 |
| COCCNC(=O)N1CCC(C(C)(C)[C@@H](O)c2cc(Cl)cc3cn[nH]c23)CC1 [Compound P-0425, (R)-4-(1-(5-chloro-1H-indazol-7-yl)-1-hydroxy-2-methylpropan-2-yl)-N-(2-methoxyethyl) piperidine-1-carboxamide] | 0.0001 to 10 |  | 0.0001 to 10 |  | 0.0001 to 10 | 0.0001 to 10 |
| OC(c1cc(Cl)cc2cn[nH]c12)C12CC3CC(CC(C3)C1)C2 [Compound P-0010, ((1S,3s)-adamantan-l-yl)(5-chloro-1H-indazol-7-yl)methanol] | 0.0001 to 10 | 0.0001 to 10 | 0.0001 to 10 | 0.0001 to 10 |  |  |
| OC(CC1CCOCC1)c1cc(Cl)cc2cn[nH]c12 (centres unmarked) [Compound P-0210, 1-(5-chloro-1H-indazol-7-yl)-2-(tetrahydro-2H-pyran-4-yl)ethan-1-ol] | 0.0001 to 10 | 0.0001 to 10 | 0.0001 to 10 | 0.0001 to 10 |  |  |
| CC(C)(C1CCN(C(=O)Nc2ccccc2Cl)CC1)[C@@H](O)c1cc(Cl)cc2cn[nH]c12 [Compound P-0432, (R)-4-(1-(5-chloro-1H-indazol-7-yl)-1-hydroxy-2-methylpropan-2-yl)-N-(2-chlorophenyl) piperidine-1-carboxamide] | 0.0001 to 10 |  | 0.0001 to 10 |  | 0.0001 to 10 | > 10 |
| CC(C)(C1CCN(C(=O)NC(=O)c2ccccc2)CC1)[C@H](O)c1cc(Cl)cc2cn[nH]c12 [Compound P-0555, (S)-N-benzoyl-4-(1-(5-chloro-1H-indazol-7-yl)-1-hydroxy-2-methylpropan-2-yl)piperidine-1-carboxamide] | 0.0001 to 10 |  | 0.0001 to 10 |  | 0.0001 to 10 | 0.0001 to 10 |
| OC(c1c2c(cc3cn[nH]c13)CC2)C12CCC(CC1)CC2 (centres unmarked) [Compound P-0279, bicyclo[2.2.2]octan-1-yl(5,6-dihydro-1H-cyclobuta[f]indazol-7-yl)methanol] | 0.0001 to 10 | > 10 | 0.0001 to 10 | 0.0001 to 10 |  |  |
| CCCNC(=O)N1CCC(C(C)(C)C(O)c2cc(Cl)cc3cn[nH]c23)CC1 (centres unmarked) [Compound P-0355, 4-(1-(5-chloro-1H-indazol-7-yl)-1-hydroxy-2-methylpropan-2-yl)-N-propylpiperidine-1-carboxamide] | 0.0001 to 10 | 0.0001 to 10 | 0.0001 to 10 | 0.0001 to 10 |  |  |
| OC(c1cc(Cl)cc2cn[nH]c12)C(C1CC1)C1CC1 (centres unmarked) [Compound P-0204, 1-(5-chloro-1H-indazol-7-yl)-2,2-dicyclopropylethan-1-ol] | 0.0001 to 10 | 0.0001 to 10 | 0.0001 to 10 | 0.0001 to 10 |  |  |
| CC(C)(C1CCN(C(=O)NCC(F)(F)F)CC1)C(O)c1cc(Cl)cc2cn[nH]c12 (centres unmarked) [Compound P-0175, 4-(1-(5-chloro-1H-indazol-7-yl)-1-hydroxy-2-methylpropan-2-yl)-N-(2,2,2-trifluoroethyl)piperidine-1-carboxamide] | 0.0001 to 10 | 0.0001 to 10 | 0.0001 to 10 | 0.0001 to 10 |  |  |
| CC(C)(C1CCN(C(=O)NC[C@H]2CCCO2)CC1)[C@H](O)c1cc(Cl)cc2cn[nH]c12 [Compound P-0565, 4-((S)-1-(5-chloro-1H-indazol-7-yl)-1-hydroxy-2-methylpropan-2-yl)-N-(((R)-tetrahydrofuran-2-yl)methyl)piperidine-1-carboxamide] | 0.0001 to 10 |  | 0.0001 to 10 |  | 0.0001 to 10 | 0.0001 to 10 |
| CC(C)(C1CCN(C(=O)CO)CC1)[C@H](O)c1cc(Cl)cc2cn[nH]c12 [Compound P-0535, (S)-1-(4-(1-(5-chloro-1H-indazol-7-yl)-1-hydroxy-2-methylpropan-2-yl)piperidin-1-yl)-2-hydroxyethan-1-one] | 0.0001 to 10 |  | 0.0001 to 10 |  | 0.0001 to 10 | 0.0001 to 10 |
| O=C(NC1CC1)N1CCC(C(F)(F)C(O)c2cc(Cl)cc3cn[nH]c23)CC1 (centres unmarked) [Compound P-0185, 4-(2-(5-chloro-1H-indazol-7-yl)-1,1-difluoro-2-hydroxyethyl)-N-cyclopropylpiperidine-1-carboxamide] | 0.0001 to 10 | 0.0001 to 10 | 0.0001 to 10 | 0.0001 to 10 |  |  |
| CN(C)c1ccc(NC(=O)N2CCC(C(C)(C)C(O)c3cc(Cl)cc4cn[nH]c34)CC2)cc1 (centres unmarked) [Compound P-0402, 4-(1-(5-chloro-1H-indazol-7-yl)-1-hydroxy-2-methylpropan-2-yl)-N-(4-(dimethylamino)phenyl)piperidine-1-carboxamide] | 0.0001 to 10 | 0.0001 to 10 | 0.0001 to 10 | 0.0001 to 10 |  |  |
| Cc1cc(C2(O)CC3(CCC3)C2)c2[nH]ncc2c1 [Compound P-0030, 2-(5-methyl-1H-indazol-7-yl)spiro[3.3]heptan-2-ol] | 0.0001 to 10 | > 10 | 0.0001 to 10 | > 10 |  |  |
| CCC1(C(O)c2cc(Cl)cc3cn[nH]c23)CCC1 (centres unmarked) [Compound P-0223, (5-chloro-1H-indazol-7-yl)(1-ethylcyclobutyl)methanol] | 0.0001 to 10 | 0.0001 to 10 | 0.0001 to 10 | 0.0001 to 10 |  |  |
| CCCS(=O)(=O)N1CCC(C(C)(C)C(O)c2cc(Cl)cc3cn[nH]c23)CC1 (centres unmarked) [Compound P-0305, 1-(5-chloro-1H-indazol-7-yl)-2-methyl-2-(1-(propylsulfonyl)piperidin-4-yl)propan-1-ol] | 0.0001 to 10 | 0.0001 to 10 | 0.0001 to 10 | 0.0001 to 10 |  |  |
| CC(C)(C1CCN(C(=O)NC[C@@H]2CCCO2)CC1)[C@H](O)c1cc(Cl)cc2cn[nH]c12 [Compound P-0566, 4-((S)-1-(5-chloro-1H-indazol-7-yl)-1-hydroxy-2-methylpropan-2-yl)-N-(((S)-tetrahydrofuran-2-yl)methyl)piperidine-1-carboxamide] | 0.0001 to 10 |  | 0.0001 to 10 |  | 0.0001 to 10 | 0.0001 to 10 |
| CC(C)C(=O)N1CCC(C(F)(F)C(O)c2cc(Cl)cc3cn[nH]c23)CC1 (centres unmarked) [Compound P-0351, 1-(4-(2-(5-chloro-1H-indazol-7-yl)-1,1-difluoro-2-hydroxyethyl)piperidin-1-yl)-2-methylpropan-1-one] | 0.0001 to 10 | 0.0001 to 10 | 0.0001 to 10 | 0.0001 to 10 |  |  |
| CC(C)(C1CCN(C(=O)CC(F)(F)F)CC1)C(O)c1cc(Cl)cc2cn[nH]c12 (centres unmarked) [Compound P-0459, 1-(4-(1-(5-chloro-1H-indazol-7-yl)-1-hydroxy-2-methylpropan-2-yl)piperidin-1-yl)-3,3,3-trifluoropropan-1-one] | 0.0001 to 10 |  | 0.0001 to 10 |  | 0.0001 to 10 | 0.0001 to 10 |
| OC(c1cc(Cl)cc2cn[nH]c12)C1CCCCC1 (centres unmarked) [Compound P-0002, (5-chloro-1H-indazol-7-yl)(cyclohexyl)methanol] | 0.0001 to 10 | 0.0001 to 10 | 0.0001 to 10 | 0.0001 to 10 |  |  |
| OC(c1cc(Cl)cc2cn[nH]c12)C(C1CCC1)C1CCC1 (centres unmarked) [Compound P-0203, 1-(5-chloro-1H-indazol-7-yl)-2,2-dicyclobutylethan-1-ol] | 0.0001 to 10 | 0.0001 to 10 | 0.0001 to 10 | 0.0001 to 10 |  |  |
| CC1(C(=O)N2CCC(C(C)(C)C(O)c3cc(Cl)cc4cn[nH]c34)CC2)CC1 (centres unmarked) [Compound P-0457, (4-(1-(5-chloro-1H-indazol-7-yl)-1-hydroxy-2-methylpropan-2-yl)piperidin-1-yl)(1-methylcyclopropyl) methanone] | 0.0001 to 10 |  | 0.0001 to 10 |  | 0.0001 to 10 | 0.0001 to 10 |
| CC1(C)CN(c2c3c(cc4cn[nH]c24)CC3)CCN1S(C)(=O)=O [Compound P-0292, 7-(3,3-dimethyl-4-(methylsulfonyl)piperazin-1-yl)-5,6-dihydro-1H-cyclobuta[f]indazole] | 0.0001 to 10 | 0.0001 to 10 | 0.0001 to 10 | 0.0001 to 10 |  |  |
| CC(C)(C1CCN(C(=O)NCc2ccccn2)CC1)C(O)c1cc(Cl)cc2cn[nH]c12 (centres unmarked) [Compound P-0477, 4-(1-(5-chloro-1H-indazol-7-yl)-1-hydroxy-2-methylpropan-2-yl)-N-(pyridin-2-ylmethyl)piperidine-1-carboxamide] | 0.0001 to 10 |  | 0.0001 to 10 |  | 0.0001 to 10 | 0.0001 to 10 |
